Results: patent publication US9527847B2, “Treatment of lupus, fibrotic conditions, and inflammatory myopathies and other disorders using PI3 kinase inhibitors” (INFINITY PHARMACEUTICALS, INC., priority 2012, dated 2016)

Columns and labels:
NZBWF1/J mice = assay: Murine NZB/W F1 lupus model; assay type: in vivo, mouse; settings: 2 mg/kg PO QD, vs vehicle
Description: Female NZBWF1/J mice (n=60) that were 8 weeks old on arrival and weighed approximately 35-51 grams (mean 42 g) at enrollment (mouse age approx. 23 weeks) were obtained from The Jackson Laboratory, Bar Harbor, Me. (stock number 100008). Animals were identified by a distinct number of ink marks at the base of the tail delineating animal number. After enrollment, all cages were labeled with protocol number, group number, and animal numbers.
Mice were terminated at age 43 weeks (day 140).
All dose solutions were prepared to deliver in 10 ml/kg (0.3 ml/30 g mouse).
Body weights were measured and recorded prior to study initiation for randomization, on the first day of dosing prior to dosing, and weekly throughout the study. Body weights were also recorded at scheduled termination points and as needed if test subjects appeared to decrease in weight by visual inspection. The animals were observed daily for significant clinical signs, morbidity and mortality.
Urine from each animal was tested weekly (beginning at mouse age 23 weeks) for proteinuria using Clinitech Multistick test strips (Bayer).
At necropsy, animals were anesthetized with isoflorane and bled via cardiac puncture for serum (for clinical chemistry analysis) and plasma (for Anti-dsDNA ELISA and PK). Terminal urine was collected and assessed. Spleens and kidneys (paired) were collected, weighed, and placed in 10% NBF. Serum obtained at necropsy was sent to Antech Diagnostics for analysis. Terminal plasma samples were split with half being used for Anti-dsDNA ELISA and the other half being shipped to the sponsor.
Anti-dsDNA IgG analysis was performed on days 0, 49, 98, and 140 (mouse age 23, 30, 37, and 43 weeks). Anti-dsDNA IgG levels were determined using an Anti-dsDNA IgG ELISA Kit (Alpha Diagnostic, kit #5120, lot #90903K4) following manufacturer's instructions.
Blood samples for clinical chemistry evaluation were collected at termination via cardiac puncture from Isoflurane anesthetized animals into serum separator microtainer tubes. Serum was sent to Antech Diagnostics for analysis.
The following parameters were measured: Albumin (ALB), Albumin: Globulin ratio (A/G), Alkaline phosphatase (ALK), Alanine aminotransferase (ALT), Aspartate aminotransferase (AST), Calcium (CA), Magnesium (Mg), Phosphorous (P), Globulin (GLOB), Electrolytes (Sodium (Na), Potassium (K), Chloride (Cl)), Gamma glutamyltransferase (GGT), Total bilirubin (TBILI), Amylase (AMY), Lipase (LIP), Osmolality, Triglycerides (TRIG), Total cholesterol (CHOL), Urea nitrogen (BUN), Creatinine (CREAT), Glucose (GLU), Total protein (TP), and Creatinine kinase (CPK).
Histopathologic evaluation was performed on kidneys. Kidneys from all surviving animals were examined microscopically by a board certified veterinary pathologist and observations were entered into a computer-assisted data retrieval system. Kidney sections were stained with Masson's Trichrome, or Hematoxylin and Eosin. To maintain blinding of the analysis, slides were labeled with the animal number with no reference to treatment group.
Kidneys were scored according to the following system (developed by Chan O, Madaio M P, Shlomchik M J. The roles of B cells in MRL/lpr murine lupus. Annals New York Academy of Sciences, 1997; 815:75-82), modified to suit the lesion severity.
• 0=Normal. • 1=Focal or multifocal, minimal to mild, early proliferative. • 2=Multifocal mild to moderate or mild diffuse proliferative. • 3=Diffuse moderate proliferative with or without multifocal severe areas. • 4=Marked diffuse proliferative, with crescents/sclerosis, multifocal protein casts present. • 5=Severe diffuse proliferative, with crescents/sclerosis, diffuse protein casts present. […]

PI3K β = biological target: T1, PI3K β (Homo sapiens, UniProt P42338); assay: In vitro IC50, PI3K β (Table 3); assay type: biochemical
T1 construct: purchased Upstate
Description: (§1) An exemplary system is PI 3-Kinase (human) HTRF™ Assay from Upstate. […] The total reaction volume is approximately 20 μl per well. […] The reaction is stopped by adding 5 μl of Stop Solution per well and then 5 μl of Detection Mix is added per well.

B cell proliferation = B cell proliferation EC50 (Table 3); assay type: cell-based; settings: in vitro
PI3K γ = biological target: T2, PI3K γ (Homo sapiens, UniProt P48736); assay: In vitro IC50, PI3K γ (Table 3); assay type: biochemical
T2 construct: purchased Sigma
Description: as §1

PI3K α = biological target: T3, PI3K α (Homo sapiens, UniProt P42336); assay: In vitro IC50, PI3K α (Table 3); assay type: biochemical
T3 construct: purchased Upstate
Description: as §1

mouse EAE model = assay: Experimental Autoimmune Encephalomyelitis (EAE) model, semi-therapeutic, 28 day; assay type: in vivo; settings: FTY720 3 mg/kg QD p.o.
Description: EAE was induced in 60 mice using Hooke Kit™ MOG35-55/CFA Emulsion PTX (Hooke Laboratories, Lawrence Mass.), catalog number EK-0110, lot number 0104, per manufacturer's recommended protocol, except that pertussis toxin was diluted with phosphate buffered saline to achieve 1.4× and 1.3× solution (starting from the 1.5× solution in the kit). This was done to optimize disease severity for this particular study.
Mice were injected subcutaneously, at two sites in the back, with the emulsion component of the kit (containing MOG35-55). One site of injection was in the area of the upper back, approximately 1 cm caudal of the neck line. The second site was in the area of the lower back, approximately 2 cm cranial of the base of the tail. Injection volume was 0.1 mL at each site. Within 2 hours of the injection of emulsion, and then again 24 hours after the injection of emulsion, the pertussis toxin component of the kit was administered intraperitoneally. Volume of each injection was 0.1 mL.
Vehicle for Group 2 (FTY720) was water and 2% ethanol. Vehicle for all other groups was water, 0.5% CMC (low viscosity), and 0.05% Tween80. Mice were dosed at the same time every day, +/−1 hour. The last day of dosing was Day 27 after immunization.
Readouts were EAE scores and changes in body weight. Mice were scored daily from Day 7 to Day 28, and body weights were measured three times/week (Monday, Wednesday and Friday), starting on Day −1.
EAE was scored on scale 0 to 5: • 0 No obvious changes in motor functions of the mouse in comparison to non-immunized mice. When picked up by the tail, the tail has tension and is erect. Hind legs are usually spread apart. When the mouse is walking, there is no gait or head tilting. • 1 Limp tail. When the mouse is picked up by the tail, instead of being erect, the whole tail drapes over finger. • 2 Limp tail and weakness of hind legs. When mouse is picked up by tail, legs are not spread apart, but held closer together. When the mouse is observed walking, it has a clearly apparent wobbly walk. • 3 Limp tail and complete paralysis of hind legs (most common); or limp tail with paralysis of one front and one hind leg; or all of: severe head tilting, walking only along the edges of the cage, pushing against the cage wall, and spinning when picked up by the tail. • 4 Limp tail, complete hind leg and partial front leg paralysis. Mouse is minimally moving around the cage but appears alert and feeding Usually, euthanasia is recommended after the mouse scores level 4 for 2 days. When the mouse is euthanized because of severe paralysis, score of 5 is entered for that mouse for the rest of the experiment. • 5 Complete hind and complete front leg paralysis, no movement around the cage; or mouse is spontaneously rolling in the cage; or mouse is found dead due to paralysis.
At the end of the study 3 luxol fast blue (LFB) stained sections and 3 H&E sections, from lumbar, thoracic, and cervical spinal cord of all mice in Groups 1, 2, 3, and 6 and the 3 naïve mice were prepared and analyzed.
Inflammatory foci were counted in each H&E stained section. Each group of approximately 20 cells was counted as one focus. Foci larger than 20 cells were counted based on an estimate of how many foci of 20 cells were present.
The demyelination score represents an estimate of demyelinated area for each section as follows. For LFB stained slides, the demyelinated area was estimated based on intensity of blue staining of myelin. For H&E stained sections, demyelinated area was estimated by looking for interruption of normal structure—pallor and vacuolation consistent with edema and demyelination, and dilated axons. • 0—no demyelination (less than 5% demyelinated area) • 1—5 to 20% demyelinated area • 2—20 to 40% demyelinated area • 3—40 to 60% demyelinated area • 4—60 to 80% demyelinated area • 5—80 to 100% demyelinated area.
The number of apoptotic cells in each of the three H&E sections was determined.

T1 sequence (P42338 whole entry): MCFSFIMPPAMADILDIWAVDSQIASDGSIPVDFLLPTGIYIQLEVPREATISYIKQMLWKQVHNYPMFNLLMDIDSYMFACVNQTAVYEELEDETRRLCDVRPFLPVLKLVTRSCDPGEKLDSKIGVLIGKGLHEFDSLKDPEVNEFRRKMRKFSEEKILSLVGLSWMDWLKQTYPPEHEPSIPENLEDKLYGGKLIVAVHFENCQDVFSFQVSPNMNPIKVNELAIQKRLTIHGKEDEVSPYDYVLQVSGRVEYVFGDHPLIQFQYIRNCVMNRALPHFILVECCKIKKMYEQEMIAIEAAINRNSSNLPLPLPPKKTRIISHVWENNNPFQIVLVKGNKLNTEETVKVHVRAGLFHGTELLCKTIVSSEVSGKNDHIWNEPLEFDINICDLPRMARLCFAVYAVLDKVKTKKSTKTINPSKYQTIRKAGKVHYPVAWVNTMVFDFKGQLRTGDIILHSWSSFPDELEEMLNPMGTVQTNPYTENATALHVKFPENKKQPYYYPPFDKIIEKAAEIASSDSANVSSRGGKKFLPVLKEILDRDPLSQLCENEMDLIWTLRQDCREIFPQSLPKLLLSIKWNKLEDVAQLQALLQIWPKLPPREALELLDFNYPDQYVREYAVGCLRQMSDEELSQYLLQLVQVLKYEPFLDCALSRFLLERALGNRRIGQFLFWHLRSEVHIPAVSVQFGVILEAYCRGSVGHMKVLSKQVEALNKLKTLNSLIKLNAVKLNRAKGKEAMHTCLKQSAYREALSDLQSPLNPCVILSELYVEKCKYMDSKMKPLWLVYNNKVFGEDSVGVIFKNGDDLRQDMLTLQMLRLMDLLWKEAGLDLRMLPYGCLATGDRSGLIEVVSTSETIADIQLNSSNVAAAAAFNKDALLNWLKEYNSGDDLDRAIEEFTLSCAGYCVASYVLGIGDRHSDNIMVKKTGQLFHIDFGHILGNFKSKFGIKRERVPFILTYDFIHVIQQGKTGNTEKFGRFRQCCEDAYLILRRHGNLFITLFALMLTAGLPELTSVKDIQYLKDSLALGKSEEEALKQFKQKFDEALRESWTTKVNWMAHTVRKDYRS
T1 sequence (P27986 whole entry partner): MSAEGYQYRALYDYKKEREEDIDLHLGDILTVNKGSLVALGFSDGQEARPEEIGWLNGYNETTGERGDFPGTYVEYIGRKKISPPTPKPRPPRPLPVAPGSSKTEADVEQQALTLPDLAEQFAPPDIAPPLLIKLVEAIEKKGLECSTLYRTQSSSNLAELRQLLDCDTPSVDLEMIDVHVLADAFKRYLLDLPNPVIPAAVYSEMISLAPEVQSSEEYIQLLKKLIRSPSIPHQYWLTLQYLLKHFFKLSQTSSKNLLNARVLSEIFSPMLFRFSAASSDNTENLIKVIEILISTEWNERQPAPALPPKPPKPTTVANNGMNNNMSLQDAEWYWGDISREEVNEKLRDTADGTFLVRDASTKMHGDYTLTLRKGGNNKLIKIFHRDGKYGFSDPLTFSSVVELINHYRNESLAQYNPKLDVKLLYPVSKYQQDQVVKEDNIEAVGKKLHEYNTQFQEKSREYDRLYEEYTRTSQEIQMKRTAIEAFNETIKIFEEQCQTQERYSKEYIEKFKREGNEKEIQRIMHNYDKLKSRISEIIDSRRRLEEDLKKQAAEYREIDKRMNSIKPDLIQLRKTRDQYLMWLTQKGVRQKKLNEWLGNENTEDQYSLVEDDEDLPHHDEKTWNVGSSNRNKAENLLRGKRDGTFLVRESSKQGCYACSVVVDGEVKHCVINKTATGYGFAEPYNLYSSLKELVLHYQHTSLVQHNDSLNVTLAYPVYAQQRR
T2 sequence (P48736 whole entry): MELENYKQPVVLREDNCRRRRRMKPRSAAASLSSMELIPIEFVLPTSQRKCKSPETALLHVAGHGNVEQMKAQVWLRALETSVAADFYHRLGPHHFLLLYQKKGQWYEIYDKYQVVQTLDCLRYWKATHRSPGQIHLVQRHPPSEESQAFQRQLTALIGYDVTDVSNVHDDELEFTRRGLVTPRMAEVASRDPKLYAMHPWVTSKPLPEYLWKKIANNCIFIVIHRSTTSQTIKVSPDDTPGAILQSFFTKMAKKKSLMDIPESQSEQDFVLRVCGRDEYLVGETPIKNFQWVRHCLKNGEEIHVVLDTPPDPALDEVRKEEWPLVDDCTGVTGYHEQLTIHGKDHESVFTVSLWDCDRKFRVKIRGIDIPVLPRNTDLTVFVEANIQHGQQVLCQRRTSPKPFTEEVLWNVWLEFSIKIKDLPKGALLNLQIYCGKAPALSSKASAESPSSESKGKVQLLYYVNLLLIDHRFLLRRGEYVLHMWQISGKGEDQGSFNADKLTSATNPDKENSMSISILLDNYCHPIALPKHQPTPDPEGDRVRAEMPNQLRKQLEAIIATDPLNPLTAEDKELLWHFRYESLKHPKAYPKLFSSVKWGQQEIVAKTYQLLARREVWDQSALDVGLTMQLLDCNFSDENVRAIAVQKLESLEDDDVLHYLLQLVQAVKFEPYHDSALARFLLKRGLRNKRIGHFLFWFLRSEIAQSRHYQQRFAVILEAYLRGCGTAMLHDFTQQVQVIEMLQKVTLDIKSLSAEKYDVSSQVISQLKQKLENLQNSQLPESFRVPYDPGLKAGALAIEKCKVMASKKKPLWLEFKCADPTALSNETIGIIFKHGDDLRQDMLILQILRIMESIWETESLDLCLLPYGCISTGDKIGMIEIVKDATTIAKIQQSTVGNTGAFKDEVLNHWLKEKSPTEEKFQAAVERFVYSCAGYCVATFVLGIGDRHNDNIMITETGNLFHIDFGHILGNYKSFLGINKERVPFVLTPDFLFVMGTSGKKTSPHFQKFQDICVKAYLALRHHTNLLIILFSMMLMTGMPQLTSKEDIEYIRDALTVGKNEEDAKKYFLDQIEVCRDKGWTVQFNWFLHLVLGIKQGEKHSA
T3 sequence (P42336 whole entry): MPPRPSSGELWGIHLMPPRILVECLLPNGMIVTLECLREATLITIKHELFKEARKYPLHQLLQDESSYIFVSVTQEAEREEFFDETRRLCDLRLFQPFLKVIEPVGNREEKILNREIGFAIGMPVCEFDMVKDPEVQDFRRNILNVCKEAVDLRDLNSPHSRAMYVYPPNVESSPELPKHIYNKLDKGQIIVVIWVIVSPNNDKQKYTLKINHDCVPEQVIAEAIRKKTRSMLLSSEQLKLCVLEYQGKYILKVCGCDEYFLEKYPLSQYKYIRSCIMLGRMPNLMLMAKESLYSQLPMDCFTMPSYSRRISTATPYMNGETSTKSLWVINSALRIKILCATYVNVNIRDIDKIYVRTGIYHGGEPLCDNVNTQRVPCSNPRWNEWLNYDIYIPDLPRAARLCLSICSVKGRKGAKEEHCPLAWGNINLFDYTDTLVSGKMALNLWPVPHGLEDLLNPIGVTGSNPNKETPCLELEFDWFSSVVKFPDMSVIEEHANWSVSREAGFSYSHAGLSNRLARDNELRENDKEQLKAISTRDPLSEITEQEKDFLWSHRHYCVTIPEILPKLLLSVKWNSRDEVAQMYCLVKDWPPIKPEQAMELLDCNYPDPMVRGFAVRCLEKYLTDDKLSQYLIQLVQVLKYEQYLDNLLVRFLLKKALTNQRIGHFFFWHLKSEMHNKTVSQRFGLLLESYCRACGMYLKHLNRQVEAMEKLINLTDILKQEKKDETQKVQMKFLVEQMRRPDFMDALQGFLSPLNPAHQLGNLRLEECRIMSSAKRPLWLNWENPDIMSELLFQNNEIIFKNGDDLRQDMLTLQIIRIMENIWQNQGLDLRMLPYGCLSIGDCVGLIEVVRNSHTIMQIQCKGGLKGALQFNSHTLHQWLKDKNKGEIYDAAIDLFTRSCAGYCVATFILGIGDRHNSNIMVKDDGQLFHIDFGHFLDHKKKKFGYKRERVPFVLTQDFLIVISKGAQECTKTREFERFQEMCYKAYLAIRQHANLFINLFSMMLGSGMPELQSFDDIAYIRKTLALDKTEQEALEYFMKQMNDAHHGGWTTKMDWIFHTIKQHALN
T3 sequence (P27986 whole entry partner): as the sequence (P27986 whole entry partner) above

C[C@@H]1C[C@H]2[C@@H]3CCC4=CC(=O)C=C[C@]4(C)[C@@]3(F)[C@@H](O)C[C@]2(C)[C@@]1(O)C(=O)CO [Dex, dexamethasone, reference compound]
Glomerulonephritis score reduction (NZBWF1/J mice; kidney histopathology): 91% | Interstitial nephritis score reduction (NZBWF1/J mice): 95% | Kidney weight increase (NZBWF1/J mice): 20% | Perivascular inflammation score reduction (NZBWF1/J mice): 100% | Spleen weight reduction (NZBWF1/J mice): 76% | Summed histopathology scores reduction (NZBWF1/J mice): 88%

Cc1ccccc1-n1c(Cn2nc(-c3cc(O)cc(F)c3)c3c(N)ncnc32)cc2cccc(C)c2c1=O [Compound 8]
IC50 (PI3K β): > 10000 nM | EC50 (B cell proliferation): < 1000 nM

Cc1cccc2cc(Cn3nc(C#CCO)c4c(N)ncnc43)n(-c3ccccc3F)c(=O)c12 [Compound 7]
IC50 (PI3K β): < 1000 nM | IC50 (PI3K γ): < 100 nM | EC50 (B cell proliferation): < 100 nM | IC50 (PI3K α): < 10000 nM

Cc1ccccc1-n1c(Cn2nc(I)c3c(N)ncnc32)cc2cccc(C)c2c1=O [Compound 6]
EC50 (B cell proliferation): < 100 nM

CCCCCCCCc1ccc(CCC(N)(CO)CO)cc1 [FTY720, reference compound]
MMS +/− SD (mouse EAE model): 1.65 +/− 1.23 | Median Day of Onset (mouse EAE model): 11.5 days | End % body weight +/− SD (mouse EAE model; Day 27 relative to Day −1): 110.0 +/− 7.4% | End score +/− SD (mouse EAE model; Day 28): 0.45 +/− 0.44 | Inflammatory foci +/− SD (mouse EAE model; per spinal cord section): 0.3 +/− 0.4 | Demyelination (LFB) +/− SD (mouse EAE model; score per section): 0.3 +/− 0.3
